Source: patent US10499642B2, “Isoxazoline-substituted benzamides and analogues as insecticides” (SYNGENTA PARTICIPATIONS AG, priority 2015, dated 2019)

How the values were obtained:
Assay type in all cases: in vivo
Thrips tabaci = Thrips tabaci (onion thrips) sunflower leaf disc test; conditions: foliar, 144 h
Description: Thrips tabaci (Onion Thrips):
(§1) Sunflower leaf discs were placed on agar in 24-well microtiter plates and sprayed with aqueous test solutions prepared from 10′000 ppm DMSO stock solutions. After drying the leaf discs were infested with a thrips population of mixed ages. The samples were assessed for mortality 6 days after infestation.

Tetranychus urticae = Tetranychus urticae (two-spotted spider mite) bean leaf disc test; conditions: foliar, 192 h
Description: Tetranychus urticae (Two-Spotted Spider Mite):
as §1, with “Bean” for “Sunflower”, “discs” for “discs were placed”, “were” for “and”, “mite” for “thrips”, “on mixed population (mobile stages) 8” for “6”

Diabrotica Balteata = test: Diabrotica balteata (corn root worm) maize sprout test; conditions: 96 h, read-out: effect in at least one of the two categories (mortality or growth inhibition)
Procedure, shortened: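 Maize sprouts on agar were sprayed with aqueous test solutions made from 10′000 ppm DMSO stocks, dried, then infested with 6 to 10 L2 larvae per well. Mortality and growth inhibition versus untreated samples were assessed 4 days after infestation; application rate 200 ppm.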

Myzus persicae = Myzus persicae (green peach aphid) sunflower leaf disc test; conditions: foliar, 144 h
Description: Myzus persicae (Green Peach Aphid):
Sunflower leaf discs were placed on agar in a 24-well microtiter plate and sprayed with test solutions at an application rate of 200 ppm. After drying, the leaf discs were infested with an aphid population of mixed ages. After an incubation period of 6 days after treatment, samples were checked for mortality. The following compounds gave at least 80% mortality of Myzus persicae: […]

Spodoptera littoralis = Spodoptera littoralis (Egyptian cotton leaf worm) cotton leaf disc test; conditions: foliar, 72 h, read-out: control (at least one of mortality, anti-feedant effect, and growth inhibition)
Procedure, shortened: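 Cotton leaf discs on agar were sprayed with aqueous dilutions of 10′000 ppm DMSO stocks, dried and infested with five L1 larvae. Mortality, anti-feedant effect and growth inhibition were scored against untreated samples 3 days after infestation. Control = any of these higher than untreated.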

Plutella xylostella = Plutella xylostella (diamond back moth) artificial diet test; conditions: 120 h, read-out: effect in at least one of the two categories (mortality or growth inhibition)
Procedure, shortened: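 Artificial diet treated with aqueous compound solutions made from DMSO stocks, dried, then infested with L2 larvae (10 to 15 per well). Mortality and growth inhibition scored versus untreated controls 5 days after infestation. Application rate 200 ppm.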

Cc1cc(C2=NO[C@@](c3cc(Cl)c(F)c(Cl)c3)(C(F)(F)F)C2)ccc1C(=O)N(C(=O)OC(C)(C)C)C1CC=NO1 (stereo partly drawn) [Compound A086, tert-butyl N-[4-[(5S)-5-(3,5-dichloro-4-fluoro-phenyl)-5-(trifluoromethyl)-4H-isoxazol-3-yl]-2-methyl-benzoyl]-N-(4,5-dihydroisoxazol-5-yl)carbamate]
≥ 80%: mortality at 200 ppm (Thrips tabaci) | mortality at 200 ppm (Tetranychus urticae) | percent effect (mortality or growth inhibition) at 200 ppm (Diabrotica Balteata) | mortality at 200 ppm (Myzus persicae) | percent control (mortality, anti-feedant effect or growth inhibition) at 200 ppm (Spodoptera littoralis) | percent effect (mortality or growth inhibition) at 200 ppm (Plutella xylostella)

Cc1cc(C2=NO[C@@](c3cc(Cl)c(F)c(Cl)c3)(C(F)(F)F)C2)ccc1C(=O)NC1CC(CO)=NO1 (stereo partly drawn) [Compound A087, 4-[(5S)-5-(3,5-dichloro-4-fluoro-phenyl)-5-(trifluoromethyl)-4H-isoxazol-3-yl]-N-[3-(hydroxymethyl)-4,5-dihydroisoxazol-5-yl]-2-methyl-benzamide]
≥ 80%: mortality at 200 ppm (Thrips tabaci) | mortality at 200 ppm (Tetranychus urticae) | percent effect (mortality or growth inhibition) at 200 ppm (Diabrotica Balteata) | mortality at 200 ppm (Myzus persicae) | percent control (mortality, anti-feedant effect or growth inhibition) at 200 ppm (Spodoptera littoralis) | percent effect (mortality or growth inhibition) at 200 ppm (Plutella xylostella)

Cc1cc(C2=NO[C@@](c3cc(Cl)c(F)c(Cl)c3)(C(F)(F)F)C2)ccc1C(=O)NC1CC(COC=O)=NO1 (stereo partly drawn) [Compound A089]
≥ 80%: mortality at 200 ppm (Thrips tabaci) | mortality at 200 ppm (Tetranychus urticae) | percent effect (mortality or growth inhibition) at 200 ppm (Diabrotica Balteata) | mortality at 200 ppm (Myzus persicae) | percent control (mortality, anti-feedant effect or growth inhibition) at 200 ppm (Spodoptera littoralis) | percent effect (mortality or growth inhibition) at 200 ppm (Plutella xylostella)

COCC1=NOC(NC(=O)c2ccc(C3=NO[C@@](c4cc(Cl)c(F)c(Cl)c4)(C(F)(F)F)C3)cc2C)C1 (stereo partly drawn) [Compound A090]
≥ 80%: mortality at 200 ppm (Thrips tabaci) | mortality at 200 ppm (Tetranychus urticae) | percent effect (mortality or growth inhibition) at 200 ppm (Diabrotica Balteata) | mortality at 200 ppm (Myzus persicae) | percent control (mortality, anti-feedant effect or growth inhibition) at 200 ppm (Spodoptera littoralis) | percent effect (mortality or growth inhibition) at 200 ppm (Plutella xylostella)

Cc1cc(C2=NO[C@@](c3cc(Cl)c(F)c(Cl)c3)(C(F)(F)F)C2)ccc1C(=O)NC1CC=NO1 (stereo partly drawn) [Compound A091]
≥ 80%: mortality at 200 ppm (Thrips tabaci) | mortality at 200 ppm (Tetranychus urticae) | percent effect (mortality or growth inhibition) at 200 ppm (Diabrotica Balteata) | mortality at 200 ppm (Myzus persicae) | percent control (mortality, anti-feedant effect or growth inhibition) at 200 ppm (Spodoptera littoralis) | percent effect (mortality or growth inhibition) at 200 ppm (Plutella xylostella)

Cc1cc(C2=NO[C@@](c3cc(Cl)c(F)c(Cl)c3)(C(F)(F)F)C2)ccc1C(=O)NC1CC(C=O)=NO1 (stereo partly drawn) [Compound A099]
≥ 80%: mortality at 200 ppm (Thrips tabaci) | mortality at 200 ppm (Tetranychus urticae) | percent effect (mortality or growth inhibition) at 200 ppm (Diabrotica Balteata) | mortality at 200 ppm (Myzus persicae) | percent control (mortality, anti-feedant effect or growth inhibition) at 200 ppm (Spodoptera littoralis) | percent effect (mortality or growth inhibition) at 200 ppm (Plutella xylostella)

C=C(Cl)COC1=NOC(NC(=O)c2ccc(C3=NO[C@@](c4cc(Cl)c(F)c(Cl)c4)(C(F)(F)F)C3)cc2C)C1 (stereo partly drawn) [Compound A100, N-[3-(2-chloroallyloxy)-4,5-dihydroisoxazol-5-yl]-4-[(5S)-5-(3,5-dichloro-4-fluoro-phenyl)-5-(trifluoromethyl)-4H-isoxazol-3-yl]-2-methyl-benzamide]
≥ 80%: mortality at 200 ppm (Thrips tabaci) | mortality at 200 ppm (Tetranychus urticae) | percent effect (mortality or growth inhibition) at 200 ppm (Diabrotica Balteata) | mortality at 200 ppm (Myzus persicae) | percent control (mortality, anti-feedant effect or growth inhibition) at 200 ppm (Spodoptera littoralis) | percent effect (mortality or growth inhibition) at 200 ppm (Plutella xylostella)

Cc1cc(C2=NO[C@@](c3cc(Cl)c(F)c(Cl)c3)(C(F)(F)F)C2)ccc1C(=O)NC1CC(OCC(F)(F)C(F)F)=NO1 (stereo partly drawn) [Compound A101]
≥ 80%: mortality at 200 ppm (Thrips tabaci) | mortality at 200 ppm (Tetranychus urticae) | percent effect (mortality or growth inhibition) at 200 ppm (Diabrotica Balteata) | mortality at 200 ppm (Myzus persicae) | percent control (mortality, anti-feedant effect or growth inhibition) at 200 ppm (Spodoptera littoralis) | percent effect (mortality or growth inhibition) at 200 ppm (Plutella xylostella)

Cc1cc(C2=NO[C@@](c3cc(Cl)c(F)c(Cl)c3)(C(F)(F)F)C2)ccc1C(=O)NC1CC(OCC(F)(F)C(F)(F)F)=NO1 (stereo partly drawn) [Compound A102]
≥ 80%: mortality at 200 ppm (Thrips tabaci) | mortality at 200 ppm (Tetranychus urticae) | percent effect (mortality or growth inhibition) at 200 ppm (Diabrotica Balteata) | mortality at 200 ppm (Myzus persicae) | percent control (mortality, anti-feedant effect or growth inhibition) at 200 ppm (Spodoptera littoralis) | percent effect (mortality or growth inhibition) at 200 ppm (Plutella xylostella)

Cc1cc(C2=NO[C@@](c3cc(Cl)c(F)c(Cl)c3)(C(F)(F)F)C2)ccc1C(=O)NC1CC(OCC(F)(F)F)=NO1 (stereo partly drawn) [Compound A103]
≥ 80%: mortality at 200 ppm (Thrips tabaci) | mortality at 200 ppm (Tetranychus urticae) | percent effect (mortality or growth inhibition) at 200 ppm (Diabrotica Balteata) | mortality at 200 ppm (Myzus persicae) | percent control (mortality, anti-feedant effect or growth inhibition) at 200 ppm (Spodoptera littoralis) | percent effect (mortality or growth inhibition) at 200 ppm (Plutella xylostella)

CCCCOC1=NOC(NC(=O)c2ccc(C3=NO[C@@](c4cc(Cl)c(F)c(Cl)c4)(C(F)(F)F)C3)cc2C)C1 (stereo partly drawn) [Compound A104]
≥ 80%: mortality at 200 ppm (Thrips tabaci) | mortality at 200 ppm (Tetranychus urticae) | percent effect (mortality or growth inhibition) at 200 ppm (Diabrotica Balteata) | mortality at 200 ppm (Myzus persicae) | percent control (mortality, anti-feedant effect or growth inhibition) at 200 ppm (Spodoptera littoralis) | percent effect (mortality or growth inhibition) at 200 ppm (Plutella xylostella)

Cc1cc(C2=NO[C@@](c3cc(Cl)c(F)c(Cl)c3)(C(F)(F)F)C2)ccc1C(=O)NC1CC(N(C)C)=NO1 (stereo partly drawn) [Compound A105, 4-[(5S)-5-(3,5-dichloro-4-fluoro-phenyl)-5-(trifluoromethyl)-4H-isoxazol-3-yl]-N-[3-(dimethylamino)-4,5-dihydroisoxazol-5-yl]-2-methyl-benzamide]
≥ 80%: mortality at 200 ppm (Thrips tabaci) | mortality at 200 ppm (Tetranychus urticae) | percent effect (mortality or growth inhibition) at 200 ppm (Diabrotica Balteata) | mortality at 200 ppm (Myzus persicae) | percent control (mortality, anti-feedant effect or growth inhibition) at 200 ppm (Spodoptera littoralis) | percent effect (mortality or growth inhibition) at 200 ppm (Plutella xylostella)

Cc1cc(C2=NO[C@@](c3cc(Cl)c(Cl)c(Cl)c3)(C(F)(F)F)C2)ccc1C(=O)NC1CC(OCCC(C)C)=NO1 (stereo partly drawn) [Compound A106, N-(3-isopentyloxy-4,5-dihydroisoxazol-5-yl)-2-methyl-4-[(5S)-5-(3,4,5-trichlorophenyl)-5-(trifluoromethyl)-4H-isoxazol-3-yl]benzamide]
≥ 80%: mortality at 200 ppm (Thrips tabaci) | mortality at 200 ppm (Tetranychus urticae) | percent effect (mortality or growth inhibition) at 200 ppm (Diabrotica Balteata) | mortality at 200 ppm (Myzus persicae) | percent control (mortality, anti-feedant effect or growth inhibition) at 200 ppm (Spodoptera littoralis) | percent effect (mortality or growth inhibition) at 200 ppm (Plutella xylostella)

CCOCCOC1=NOC(NC(=O)c2ccc(C3=NO[C@@](c4cc(Cl)c(Cl)c(Cl)c4)(C(F)(F)F)C3)cc2C)C1 (stereo partly drawn) [Compound A107, N-[3-(2-ethoxyethoxy)-4,5-dihydroisoxazol-5-yl]-2-methyl-4-[(5S)-5-(3,4,5-trichlorophenyl)-5-(trifluoromethyl)-4H-isoxazol-3-yl]benzamide]
≥ 80%: mortality at 200 ppm (Thrips tabaci) | mortality at 200 ppm (Tetranychus urticae) | percent effect (mortality or growth inhibition) at 200 ppm (Diabrotica Balteata) | mortality at 200 ppm (Myzus persicae) | percent control (mortality, anti-feedant effect or growth inhibition) at 200 ppm (Spodoptera littoralis) | percent effect (mortality or growth inhibition) at 200 ppm (Plutella xylostella)

Cc1cc(C2=NO[C@@](c3cc(Cl)c(F)c(Cl)c3)(C(F)(F)F)C2)ccc1C(=O)NC1CC(Oc2ccc(Cl)cc2)=NO1 (stereo partly drawn) [Compound A108, N-[3-(4-chlorophenoxy)-4,5-dihydroisoxazol-5-yl]-4-[(5S)-5-(3,5-dichloro-4-fluoro-phenyl)-5-(trifluoromethyl)-4H-isoxazol-3-yl]-2-methyl-benzamide]
≥ 80%: mortality at 200 ppm (Thrips tabaci) | mortality at 200 ppm (Tetranychus urticae) | percent effect (mortality or growth inhibition) at 200 ppm (Diabrotica Balteata) | mortality at 200 ppm (Myzus persicae) | percent control (mortality, anti-feedant effect or growth inhibition) at 200 ppm (Spodoptera littoralis) | percent effect (mortality or growth inhibition) at 200 ppm (Plutella xylostella)

Cc1cc(C2=NO[C@@](c3cc(Cl)c(F)c(Cl)c3)(C(F)(F)F)C2)ccc1C(=O)NC1CC(OCC[Si](C)(C)C)=NO1 (stereo partly drawn) [Compound A109]
≥ 80%: mortality at 200 ppm (Thrips tabaci) | mortality at 200 ppm (Tetranychus urticae) | percent effect (mortality or growth inhibition) at 200 ppm (Diabrotica Balteata) | mortality at 200 ppm (Myzus persicae) | percent control (mortality, anti-feedant effect or growth inhibition) at 200 ppm (Spodoptera littoralis) | percent effect (mortality or growth inhibition) at 200 ppm (Plutella xylostella)

Cc1cc(C2=NO[C@@](c3cc(Cl)c(Cl)c(Cl)c3)(C(F)(F)F)C2)ccc1C(=O)NC1CC(OCc2ccccc2)=NO1 (stereo partly drawn) [Compound A110, N-(3-benzyloxy-4,5-dihydroisoxazol-5-yl)-2-methyl-4-[(5S)-5-(3,4,5-trichlorophenyl)-5-(trifluoromethyl)-4H-isoxazol-3-yl]benzamide]
≥ 80%: mortality at 200 ppm (Thrips tabaci) | mortality at 200 ppm (Tetranychus urticae) | percent effect (mortality or growth inhibition) at 200 ppm (Diabrotica Balteata) | mortality at 200 ppm (Myzus persicae) | percent control (mortality, anti-feedant effect or growth inhibition) at 200 ppm (Spodoptera littoralis) | percent effect (mortality or growth inhibition) at 200 ppm (Plutella xylostella)
